ChEMBL document CHEMBL6109174, “The Prosperity and Adversity of M4 Muscarinic Acetylcholine Receptor Activators in the Treatment of Neuropsychiatric Disorders” (J Med Chem, 2025)

target: T1, Muscarinic acetylcholine receptor M4 (Homo sapiens, UniProt P08173); assay: Agonist activity at human M4 receptor; assay type: functional
T1 sequence (P08173 whole entry): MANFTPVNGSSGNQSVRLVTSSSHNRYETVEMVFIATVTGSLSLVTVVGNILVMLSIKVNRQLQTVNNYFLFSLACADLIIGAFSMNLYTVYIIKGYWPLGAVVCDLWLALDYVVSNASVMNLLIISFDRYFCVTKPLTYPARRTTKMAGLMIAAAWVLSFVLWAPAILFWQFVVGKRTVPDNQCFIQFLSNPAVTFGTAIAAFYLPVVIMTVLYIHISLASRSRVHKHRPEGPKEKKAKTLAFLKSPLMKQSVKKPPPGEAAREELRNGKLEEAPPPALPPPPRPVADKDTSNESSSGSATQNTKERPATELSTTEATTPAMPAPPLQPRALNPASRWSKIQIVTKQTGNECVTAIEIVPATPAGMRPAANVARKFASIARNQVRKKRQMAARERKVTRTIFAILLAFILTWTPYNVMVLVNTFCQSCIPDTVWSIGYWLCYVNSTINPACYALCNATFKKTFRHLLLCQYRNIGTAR

| SMILES | EC50 |
| --- | --- |
| COc1nc2sc(C(=O)NC3CC3)c(N)c2c(C)c1Cl | 39 nM |
| CCNC(=O)c1sc2nc(OC)c(Cl)c(C)c2c1N | 200 nM |

target: T1, Muscarinic acetylcholine receptor M4; assay: Agonist activity at human recombinant M4 muscarinic acetylcholine receptor assessed as calcium mobilization by FLIPR analysis; assay type: functional

| SMILES | EC50 |
| --- | --- |
| Cc1cc(C)c2c(N)c(C(=O)NCc3ccccc3)sc2n1 | 1.3 nM |
| Cc1cc(C)c2c(N)c(C(=O)NCc3ccco3)sc2n1 | 395 nM |
| Cc1cc(C)c2c(N)c(C(=O)NCc3ccc(Cl)cc3)sc2n1 | 400 nM |
| Cc1nc2sc(C(=O)NCc3ccncc3)c(N)c2c(C)c1Cl | 77 nM |
| Cc1cc(C)c2c(N)c(C(=O)NCc3ccc4c(c3)OCO4)sc2n1 | 403 nM |
| Cc1nnc2sc(C(=O)NCc3ccc(-c4ccnc(F)c4)cc3)c(N)c2c1C | 91 nM |

target: T2, Muscarinic acetylcholine receptor M2 (Homo sapiens, UniProt P08172); assay: Agonist activity at human M2 receptor; assay type: functional
T2 sequence (P08172 whole entry): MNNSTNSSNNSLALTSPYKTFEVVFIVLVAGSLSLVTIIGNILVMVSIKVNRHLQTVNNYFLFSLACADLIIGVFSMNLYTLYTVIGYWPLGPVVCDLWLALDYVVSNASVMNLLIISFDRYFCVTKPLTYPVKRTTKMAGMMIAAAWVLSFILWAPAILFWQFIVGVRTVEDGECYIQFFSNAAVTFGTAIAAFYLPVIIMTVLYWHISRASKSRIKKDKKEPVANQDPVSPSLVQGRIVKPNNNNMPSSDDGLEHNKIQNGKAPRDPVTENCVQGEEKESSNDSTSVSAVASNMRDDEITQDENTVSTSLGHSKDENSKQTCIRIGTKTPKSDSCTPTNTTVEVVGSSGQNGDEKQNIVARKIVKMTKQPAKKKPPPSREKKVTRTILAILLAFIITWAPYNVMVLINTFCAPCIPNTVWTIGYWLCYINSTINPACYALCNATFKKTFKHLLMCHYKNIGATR

| SMILES | EC50 |
| --- | --- |
| COC(=O)N1CCC(N2CCC(n3c(=O)n(C)c4ccccc43)CC2)CC1 | 135 nM |
